The values below come from US11014898B1, “Benzothiazepine compounds and their use as bile acid modulators” (Albireo AB, priority 2020, dated 2021).

A short description of data set [1]: Bioavailability studies (iv and oral dosing, plasma LC-MS/MS). It is filed as in vivo, mice (C57BL/6). The note with it: male, mouse, C57BL/6 mice, single oral dose of 10 mg/kg, single intravenous dose of 1 mg/kg. The method, then:
Male mice (C57BL/6 or CD1) or Wistar rats of 8-9 weeks old were used. For each test compound, two groups of 3 animals each were used. One group was administered a single intravenous dose of 1 mg/kg (vehicle 100% DMSO) through the tail vein and the other group was administered a single oral dose of 10 mg/kg through gavage needle. The group that was administered an oral dose was fasted overnight. Blood samples were collected after 0.083, 0.25, 0.5, 1, 2, 4, 6, 8 and 24 hours following intravenous administration, and after 0.25, 0.5, 1, 2, 4, 6, 8 and 24 hours following oral administration. Blood samples were taken from saphenous vein. 0.2% EDTA was used as the anticoagulant. The samples were analyzed by a discovery grade bioanalytical method developed for the estimation of test compound in plasma, using an LC-MS/MS system.

The target in data set [2] is T1, Human IBAT (Homo sapiens, UniProt Q12908).
T1 construct: expressed in transfected cells; cells kept under Puromycin selection
T1 sequence (Q12908 1-348): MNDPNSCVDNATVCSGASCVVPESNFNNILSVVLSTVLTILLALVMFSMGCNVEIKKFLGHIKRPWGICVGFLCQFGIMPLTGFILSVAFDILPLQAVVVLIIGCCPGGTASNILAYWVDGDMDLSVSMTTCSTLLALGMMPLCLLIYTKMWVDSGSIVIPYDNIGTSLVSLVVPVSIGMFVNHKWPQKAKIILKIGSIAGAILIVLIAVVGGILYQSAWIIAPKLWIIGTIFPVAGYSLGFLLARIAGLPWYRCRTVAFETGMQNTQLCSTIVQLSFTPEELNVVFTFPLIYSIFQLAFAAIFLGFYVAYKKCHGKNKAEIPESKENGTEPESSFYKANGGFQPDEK
The experiment in a line: IBAT (h) assay: 3H-taurocholic acid uptake in human IBAT-overexpressing cells. The format is cell-based. The note with it: 0.25 μM 3H-taurocholic acid and 5 μM cold taurocholic acid, 20 minutes, read-out: hIBAT IC50. As to the method: 10,000 cells (Human or Mouse IBAT-overexpressing cells) were seeded in 96-wells plate (Corning CLS3809) in 200 μL MEM-alpha medium (Gibco 12571-063) supplemented with 10% FBS (Gibco 10438026) containing Puromycin (Gibco A1113803) (10 μg/mL) and incubated at 37° C. in 5% CO2 for 48 hours. After incubation, media was decanted from the wells and cells were washed two times with 300 μL of basal MEM-alpha medium (FBS-free). After decanting basal MEM-alpha medium each time, plates were tapped against paper towel to ensure maximum removal of residual media. Test inhibitor dilutions (highest test concentration being 10 μM, 3-fold serial dilution, 10 points) prepared in DMSO (Sigma D2650) were added in incubation mix (maintaining 0.2% final DMSO concentration) containing 0.25 μM 3H-taurocholic acid (ARC ART-1368) and 5 μM of cold taurocholic acid (Sigma T4009). 50 μL of incubation mix containing test inhibitors was then added to the wells (in duplicate) and the plates were incubated for 20 minutes in a CO2 incubator at 37° C. After incubation, the reaction was stopped by keeping the plates on ice water mix for 2-3 minutes and then the incubation mix was aspirated completely from the wells. The wells were washed two times with 250 μL of chilled unlabelled 1 mM taurocholic acid dissolved in HEPES (Gibco 15630080)-buffered (10 mM) HBSS (Gibco 14175079) (pH 7.4). The plates were tapped against a paper towel after every wash to ensure maximum removal of blocking buffer.
100 μL of MicroScint-20 (PerkinElmer 6013621) was added to the wells and kept overnight at room temperature before reading the plates in TopCount NXT™ Microplate Scintillation and Luminescence Counter from PerkinElmer under 3H Test protocol (set at 120 seconds reading time per well).
(§1) All test compounds were provided in powder form at room temperature. 10 mM DMSO stocks of the test compounds were prepared, aliquoted and stored at −20° C. From the 10 mM DMSO stock of the compounds, a 3-fold serial dilution in DMSO was prepared to get a total of 10 dilutions of the test compounds. 0.5 μL of this dilution in DMSO was added to 250 μL of FBS-free basal media containing 3H-taurocholic acid and cold taurocholic acid to prepare the incubation mixture.

Data set [3] can be described thus: Bidirectional permeability assay (Caco-2 cells). To be noted: human, Caco-2, pH 7.4, 10 μM in FaSSIF buffer, 120 minutes at 37° C.; for Papp A→B at 120 min, 10 μM: absorptive direction (A2B); for Papp B→A at 120 min, 10 μM: secretory direction (B2A). It is filed as in vitro ADME. The method, then: Caco-2 cells (Evotec) were seeded at a density of 70,000 cells/well in Millicell® 24-well cell culture insert plates and maintained in an incubator (37° C., 5% CO2, 95% RH) for 21 days with media change on alternate days.
Stock solutions (10 mM) of the test compounds, atenolol (low permeability marker), propranolol (high permeability marker) and digoxin (substrate for P-gp transport pathway) were prepared in dimethylsulfoxide (DMSO). An intermediate stock solution (1 mM) was prepared by diluting 10 μL of 10 mM master stock solution with 90 μL of neat DMSO. A working stock solution (10 μM) was prepared by diluting 50 μL of 1 mM with 4950 μL of FaSSIF buffer. Post addition of compounds to the FaSSIF, samples were subjected to sonication for 2 hours, and centrifuged at 4000 RPM for 30 minutes at 37° C. The 4 mL of resultant supernatant was directly used in the assay. The final DMSO concentration in the transport experiments was 1%.
On the day of assay, Caco-2 monolayers were washed twice with transport buffer (HBSS, pH 7.4) and pre-incubated for 30 min (37° C., 5% CO2, 95% RH) in an incubator. The electrical resistance of the monolayers was measured with a Millicell®-ERS system. Monolayers with trans-epithelial electrical resistance (TEER) values greater than 350 ohm·cm^2 were selected for the assay.
The assay was conducted in absorptive direction (A2B) and secretory (B2A) directions. Transport experiments were initiated by addition of transport assay buffer (FaSSIF buffer prepared in HBSS) consisting of compounds to the donor compartment (apical chamber A-B; basolateral chamber B-A) in duplicate (n=2) wells. Drug free HBSS buffer (pH 7.4) containing 1% bovine serum albumin (BSA) was introduced to the receiver (A-B-basolateral; B-A-Apical) compartments. The volumes of apical and basolateral compartments were 0.4 and 0.8 mL, respectively. After adding dosing solution, plates were incubated in an incubator for 120 minutes at 37° C. After 120 minutes, donor and receiver samples were collected and matrix matched (1:1, 30 μL study sample+30 μL blank buffer) with the opposite buffer. Dosing samples matrix matched (1:1, 30 μL study sample+30 μL blank buffer) with the opposite buffer. Samples were processed by adding acetonitrile containing internal standard (60 μL study sample+200 μL acetonitrile containing internal standard-Tolbutamide, 500 ng/mL). Samples were vortexed and centrifuged at 4000 rpm for 10 minutes. The obtained supernatant (100 μL) was diluted with 100 μL of water and transferred to fresh 96 well plates. The concentration of compounds in the samples was analyzed by liquid chromatography tandem mass spectrometry (LC-MS/MS) method using discovery grade bio-analytical method, as applicable.
The mean apparent permeability (Papp×10^−6 cm/sec) of the test compounds, atenolol, propranolol and digoxin were calculated as follows:
where dq/dt=rate of transport (rate of transport of compound in the receiver compartment), C0=initial concentration in the donor compartment, A=surface area of the effective filter membrane.

Data set [4] addresses T2, Human LBAT (Homo sapiens, UniProt Q14973).
T2 construct: expressed in transfected cells; cells kept under Geneticin selection
T2 sequence (Q14973 1-349): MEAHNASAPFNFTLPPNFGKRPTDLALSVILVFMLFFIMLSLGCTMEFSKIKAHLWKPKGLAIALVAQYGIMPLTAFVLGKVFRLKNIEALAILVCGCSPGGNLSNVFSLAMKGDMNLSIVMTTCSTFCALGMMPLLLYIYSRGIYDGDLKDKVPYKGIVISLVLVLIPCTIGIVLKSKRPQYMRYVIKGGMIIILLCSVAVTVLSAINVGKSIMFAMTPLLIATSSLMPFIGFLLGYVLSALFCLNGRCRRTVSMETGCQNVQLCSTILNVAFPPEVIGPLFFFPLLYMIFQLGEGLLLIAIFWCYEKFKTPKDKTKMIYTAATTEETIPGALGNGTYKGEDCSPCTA
Briefly: LBAT (h) assay: 3H-taurocholic acid uptake in human LBAT-overexpressing cells. The format is cell-based. The note with it: 0.3 μM 3H-taurocholic acid and 7.5 μM cold taurocholic acid, 20 minutes, read-out: hLBAT IC50. The method, then:
20,000 cells (Human or Mouse LBAT-overexpressing cells) were seeded in 96-wells plate (Corning CLS3809) in 100 μL MEM-alpha medium (Gibco 12571-063) supplemented with 10% FBS (Gibco 10438026) containing Geneticin (Gibco 10131-027) (1 mg/mL) and incubated at 37° C. in 5% CO2 for 24 hours. After incubation, media was decanted from the wells and cells were washed two times with 300 μL of basal MEM-alpha medium (FBS-free). After decanting basal MEM-alpha medium each time, plates were tapped against paper towel to ensure maximum removal of residual media. For human LBAT, incubation mix was prepared by adding test inhibitor dilutions (3-fold serial dilution in DMSO (Sigma D2650), 10 points) in MEM-alpha (without FBS) containing 0.3 μM 3H-taurocholic acid (ARC ART-1368) and 7.5 μM cold taurocholic acid (Sigma T4009) (maintaining 0.2% final DMSO concentration). For mouse LBAT, incubation mix was prepared by adding test inhibitor dilutions (3-fold serial dilution in DMSO, 10 points) in MEM-alpha (without FBS) containing 0.3 μM 3H-taurocholic acid and 25 μM cold taurocholic acid maintaining 0.2% final DMSO concentration).
50 μL of incubation mix containing test inhibitors was then added to the wells (in duplicate) and the plates were incubated for 20 minutes in a CO2 incubator at 37° C. After incubation, the reaction was stopped by keeping the plates on ice water mix for 2-3 minutes and then the incubation mix was aspirated completely from the wells. The wells were washed two times with 250 μL of chilled unlabelled 1 mM taurocholic acid dissolved in HEPES (Gibco 15630080)-buffered (10 mM) HBSS (Gibco 14175079) (pH 7.4). The plates were tapped against a paper towel after every wash to ensure maximum removal of blocking buffer.
100 μL of MicroScint-20 (PerkinElmer 6013621) was added to the wells and kept overnight at room temperature before reading the plates in TopCount NXT™ Microplate Scintillation and Luminescence Counter from PerkinElmer under 3H Test protocol (set at 120 seconds reading time per well, with normal plate orientation).
as §1

SMILES strings stand for the structures.

For the molecule `CCCCC1(CC)CN(c2ccccc2)c2cc(N(C)C)c(OCC(=O)O)cc2S(=O)(=O)C1` (single isomer, unassigned) [Example 8, 2-((3-butyl-7-(dimethylamino)-3-ethyl-1,1-dioxido-5-phenyl-2,3,4,5-tetrahydro-1,5-benzothiazepin-8-yl)oxy)acetic Acid], in data set [1], the bioavailability (usually dose-corrected exposure relative to a reference, in per cent) turned out to be 26%. The IC50 (as a rule, the point on the concentration scale where inhibition reaches its midpoint) in data set [2] was 9 nM. Moreover, in data set [3], the Papp A→B (commonly how fast a substance crosses the layer from the apical side) at 120 min, 10 μM came out at 7.9 ×10⁻⁶ cm/s and the Papp B→A (in general, how fast a substance crosses the layer from the basolateral side) at 120 min, 10 μM was 23.7 ×10⁻⁶ cm/s.
Take `CCCCC1(CC)CN(c2ccc(O)cc2)c2cc(SC)c(OCC(=O)O)cc2S(=O)(=O)C1` (single isomer, unassigned) [Example 20, 2-((3-butyl-3-ethyl-5-(4-hydroxyphenyl)-7-(methylthio)-1,1-dioxido-2,3,4,5-tetrahydro-1,5-benzothiazepin-8-yl)oxy)acetic Acid]: the IC50 in data set [2] was determined as 14 nM; in data set [4], 751 nM.
On to `CCCCC1(CCCC)CN(c2ccc(C#N)cc2)c2cc(SC)c(OCC(=O)O)cc2S(=O)(=O)C1` [Example 5, 2-((3,3-dibutyl-5-(4-cyanophenyl)-7-(methylthio)-1,1-dioxido-2,3,4,5-tetrahydro-1,5-benzothiazepin-8-yl)oxy)acetic Acid], for which the bioavailability in data set [1] came out at 6%. The half-maximal inhibitory concentration (IC50) in data set [2] was 58 nM. Further, in data set [3], the apparent permeability from apical to basolateral (Papp A→B) at 120 min, 10 μM was found to be 5.5 ×10⁻⁶ cm/s and the basolateral-to-apical permeability (Papp B→A) at 120 min, 10 μM amounted to 14.5 ×10⁻⁶ cm/s.
Take `CCCCC1(CCCC)CN(c2ccc(C(F)(F)F)cc2)c2cc(SC)c(OCC(=O)O)cc2S(=O)(=O)C1` [Example 6, 2-((3,3-dibutyl-7-(methylthio)-1,1-dioxido-5-(4-(trifluoromethyl)phenyl)-2,3,4,5-tetrahydro-1,5-benzothiazepin-8-yl)oxy)acetic Acid]: the results for the IC50 in data set [2] and in data set [4] were 59 nM and 3610 nM, respectively.
The like results for `CCCCC1(CCCC)CN(c2ccccc2)c2cc(F)c(OCC(=O)O)cc2S(=O)(=O)C1` [Example 10, 2-((3,3-dibutyl-7-fluoro-1,1-dioxido-5-phenyl-2,3,4,5-tetrahydro-1,5-benzothiazepin-8-yl)oxy)acetic Acid] were, in that order, 179 nM and 1070 nM.
On to `CCCCC1(CCCC)CN(c2ccccc2)c2cc(C#N)c(OCC(=O)O)cc2S(=O)(=O)C1` [Example 11, 2-((3,3-dibutyl-7-cyano-1,1-dioxido-5-phenyl-2,3,4,5-tetrahydro-1,5-benzothiazepin-8-yl)oxy)acetic Acid], for which the IC50 in data set [2] is 281 nM; in data set [4] it was 2530 nM.
The matching figures for `CCCCC1(CC)CN(c2ccccc2)c2cc(F)c(OCC(=O)O)cc2S(=O)(=O)C1` (centres unmarked) [Example 12, 2-((3-butyl-3-ethyl-7-fluoro-1,1-dioxido-5-phenyl-2,3,4,5-tetrahydro-1,5-benzothiazepin-8-yl)oxy)acetic Acid]: 350 nM and 473 nM.
The matching figures for `CCCCC1(CCCC)CN(c2ccccc2)c2cc(Cl)c(OCC(=O)O)cc2S(=O)(=O)C1` [Example 13, 2-((3,3-dibutyl-7-chloro-1,1-dioxido-5-phenyl-2,3,4,5-tetrahydro-1,5-benzothiazepin-8-yl)oxy)acetic Acid]: 268 nM and 1620 nM.
